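Dose response: 5 concentrations. Exposure: 48 h. Format: 96-well plates. Endpoint: linear interpolation; highest concentration if not reached. GI50 is the concentration that inhibits growth by half.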 Calls of active or inactive are those of the source. Cut-off read from the data, not from the text of the source: active = GI50 up to about 1.1 µM and inactive = higher.
Legend:
Assay in all cases: DTP human tumour cell line panel, 48 h
[1] = tested on: RXF 393
[2] = tested on: SNB-19
[3] = tested on: SF-268
[4] = tested on: SF-539
[5] = tested on: OVCAR-5
[6] = tested on: XF498
[7] = tested on: HOP-92
[8] = tested on: TK-10
[9] = tested on: SK-MEL-2
[10] = tested on: K562
[11] = tested on: A549
[12] = tested on: UACC-62
[13] = tested on: NCI-H23
[14] = tested on: RXF 631
[15] = tested on: COLO 205
[16] = tested on: DLD-1
[17] = tested on: EKVX
[18] = tested on: DMS-273
[19] = tested on: Malme-3M
[20] = tested on: OVCAR-3
[21] = tested on: SNB-78
[22] = tested on: SW-620
[23] = tested on: NCI-H522
[24] = tested on: LXFL 529
[25] = tested on: 786-0
[26] = tested on: OVCAR-8
[27] = tested on: IGROV-1
[28] = tested on: OVCAR-4
[29] = tested on: U-251
[30] = tested on: SK-OV-3
[31] = tested on: HCC 2998
[32] = tested on: KM12
[33] = tested on: SF-295
[34] = tested on: M14
[35] = tested on: HCT-15
[36] = tested on: KM-20L2
[37] = tested on: CCRF-CEM
[38] = tested on: SK-MEL-28
[39] = tested on: SK-MEL-5
[40] = tested on: ACHN
[41] = tested on: UO-31
[42] = tested on: M19-MEL
[43] = tested on: HT-29
[44] = tested on: SN12C
[45] = tested on: MOLT-4
[46] = tested on: CAKI-1
[47] = tested on: SR
[48] = tested on: HOP-18
[49] = tested on: MDA-N
[50] = tested on: Hs-578T
[51] = tested on: DU-145
[52] = tested on: PC-3
[53] = tested on: NCI-H460
[54] = tested on: HL-60
[55] = tested on: SNB-75
[56] = tested on: HCT-116
[57] = tested on: MCF7
[58] = tested on: DMS-114
[59] = tested on: BT-549
[60] = tested on: UACC-257
[61] = tested on: HOP-62
[62] = tested on: MDA-MB-231
[63] = tested on: T47D
[64] = tested on: RPMI-8226
[65] = tested on: NCI-H226
[66] = tested on: LOX IMVI
[67] = tested on: MDA-MB-435
[68] = tested on: A498

O=C(N/C(=C\c1cccc([N+](=O)[O-])c1)c1nc2cc([N+](=O)[O-])ccc2[nH]1)c1ccccc1
GI50 [1]: 12.8 µM (inactive)
GI50 [2]: 45.4 µM (inactive)
GI50 [3]: 19.7 µM (inactive)
GI50 [4]: 29.4 µM (inactive)
GI50 [5]: 73.3 µM (inactive)
GI50 [6]: 20.7 µM (inactive)
GI50 [7]: 21.4 µM (inactive)
GI50 [8]: 93.3 µM (inactive)
GI50 [9]: 24.3 µM (inactive)
GI50 [10]: 25.1 µM (inactive)
GI50 [11]: 26.8 µM (inactive)
GI50 [12]: 19.7 µM (inactive)
GI50 [13]: 27.3 µM (inactive)
GI50 [14]: 28.8 µM (inactive)
GI50 [15]: 35.6 µM (inactive)
GI50 [16]: 28.4 µM (inactive)
GI50 [17]: 51.9 µM (inactive)
GI50 [18]: 39 µM (inactive)
GI50 [19]: 48.2 µM (inactive)
GI50 [20]: 40.6 µM (inactive)
GI50 [21]: 49.3 µM (inactive)
GI50 [22]: 35.1 µM (inactive)
GI50 [23]: 18.3 µM (inactive)
GI50 [24]: 11 µM (inactive)
GI50 [25]: 36.1 µM (inactive)
GI50 [26]: 31 µM (inactive)
GI50 [27]: 21.4 µM (inactive)
GI50 [28]: 19.5 µM (inactive)
GI50 [29]: 40.7 µM (inactive)
GI50 [30]: 71.3 µM (inactive)
GI50 [31]: 33.5 µM (inactive)
GI50 [32]: 29.6 µM (inactive)
GI50 [33]: 40.4 µM (inactive)
GI50 [34]: 38.9 µM (inactive)
GI50 [35]: 22.1 µM
GI50 [36]: 23.1 µM (inactive)
GI50 [37]: 19.8 µM (inactive)
GI50 [38]: 36.9 µM (inactive)
GI50 [39]: 20.7 µM (inactive)
GI50 [40]: 28.4 µM (inactive)
GI50 [41]: 10.9 µM (inactive)
GI50 [42]: 40.7 µM (inactive)
GI50 [43]: 44.4 µM (inactive)
GI50 [44]: 39.4 µM (inactive)
GI50 [45]: 12.2 µM (inactive)
GI50 [46]: 30.4 µM (inactive)
GI50 [47]: 17.1 µM (inactive)

Cc1cc(Cl)ccc1Nc1nc2c(s1)C(=O)c1ccccc1C2=O
GI50 [48]: 3 µM (inactive)
GI50 [1]: 7.28 µM (inactive)
GI50 [2]: 4.75 µM (inactive)
GI50 [49]: 0.604 µM (active)
GI50 [50]: 2.39 µM (inactive)
GI50 [51]: 1.68 µM (inactive)
GI50 [3]: 3.24 µM (inactive)
GI50 [52]: 1.82 µM (inactive)
GI50 [4]: 3.39 µM (inactive)
GI50 [5]: 4.55 µM (inactive)
GI50 [7]: 13.9 µM (inactive)
GI50 [8]: 16.9 µM (inactive)
GI50 [9]: 8.45 µM (inactive)
GI50 [10]: 2.41 µM (inactive)
GI50 [53]: 3.32 µM (inactive)
GI50 [11]: 4.59 µM (inactive)
GI50 [54]: 0.621 µM (active)
GI50 [12]: 2.5 µM (inactive)
GI50 [13]: 1.84 µM (inactive)
GI50 [14]: 6.46 µM (inactive)
GI50 [15]: 4.33 µM (inactive)
GI50 [16]: 5.45 µM (inactive)
GI50 [55]: 7.33 µM (inactive)
GI50 [56]: 2.12 µM (inactive)
GI50 [17]: 9.04 µM (inactive)
GI50 [18]: 2.52 µM (inactive)
GI50 [57]: 1.87 µM (inactive)
GI50 [19]: 1.45 µM (inactive)
GI50 [20]: 1.43 µM (inactive)
GI50 [21]: 14.5 µM (inactive)
GI50 [22]: 1.94 µM (inactive)
GI50 [23]: 1.99 µM (inactive)
GI50 [24]: 3.67 µM (inactive)
GI50 [25]: 1.71 µM (inactive)
GI50 [58]: 2.2 µM (inactive)
GI50 [59]: 1.53 µM (inactive)
GI50 [26]: 2.88 µM (inactive)
GI50 [60]: 2.53 µM (inactive)
GI50 [27]: 4.51 µM (inactive)
GI50 [28]: 3.29 µM (inactive)
GI50 [29]: 3.28 µM (inactive)
GI50 [30]: 8.49 µM (inactive)
GI50 [61]: 5.13 µM (inactive)
GI50 [31]: 6.34 µM (inactive)
GI50 [32]: 6.01 µM (inactive)
GI50 [33]: 9.12 µM (inactive)
GI50 [62]: 1.3 µM (inactive)
GI50 [34]: 0.948 µM (active)
GI50 [35]: 1.85 µM
GI50 [36]: 18.9 µM (inactive)
GI50 [63]: 2.02 µM (inactive)
GI50 [37]: 2.18 µM (inactive)
GI50 [38]: 1.98 µM (inactive)
GI50 [39]: 1.82 µM (inactive)
GI50 [40]: 3.98 µM (inactive)
GI50 [64]: 2.92 µM (inactive)
GI50 [65]: 6.34 µM (inactive)
GI50 [66]: 1.53 µM (inactive)
GI50 [41]: 4.45 µM (inactive)
GI50 [67]: 0.378 µM (active)
GI50 [42]: 0.728 µM (active)
GI50 [43]: 18.3 µM (inactive)
GI50 [44]: 1.8 µM (inactive)
GI50 [45]: 1.86 µM (inactive)
GI50 [68]: 22.2 µM (inactive)
GI50 [46]: 6.3 µM (inactive)
GI50 [47]: 2.8 µM (inactive)
